Laboratory results as given in patent US12303594B2, “Antimicrobial and anti-inflammatory compositions” (The Texas A&M University System, priority 2015, dated 2025).

Legend:
[1] = Solubilization in aqueous DMSO/phosphate buffer solution; type: physicochemical; conditions: aqueous solution of 1% v/v DMSO in phosphate buffer, DMSO (1% v/v) and phosphate (PO4) buffer, read-out: concentration solubilized
[2] = system: methicillin-resistant Staphylococcus aureus (strain MRSA 0646); assay: Minimum inhibitory concentration (MIC); type: cell-based; conditions: alone, read-out: MIC
Experimental: (§1) The final concentrations of aztreonam, ceftazidime and vancomycin were 0.06, 0.13, 0.25, 0.5, 1, 2, 4, 8, 16, 32, 64, and 128 μg/ml. The plates were incubated overnight at 37° C. […] Each triplicate was performed at least twice.

[3] = system: Pseudomonas aeruginosa (strain PA HP3); assay: Minimum inhibitory concentration (MIC); type: cell-based; conditions: alone
Experimental: as §1

[4] = Particle size distribution by laser light diffraction; type: physicochemical
Experimental: The particle size distribution (PSD) D10, D50, and D90 values for each sample were defined as particle diameters at the 10th, 50th, and 90th percentile and the span value was calculated according to Equation 2: […]
PSD analysis by laser light diffraction: PSDs were determined using a Sympatec Helos equipped with a Cuvette module (System-Partikel-Technik GmbH, Clausthal-Zellerfeld, Germany). Data were analyzed using the Sympatec WINDOX software. For each measurement, per a previously optimized method, about 2 mg of powder was dispersed in 0.5 mL of 0.1% (w/v) sodium dodecyl sulfate in water and the sample was sonicated for 5 min. […] After the reference measurement, 50 μL aliquots of the sonicated suspension were added to the cell to achieve optical concentrations of between 10 to 20% and the total of six measurements were performed on each sample. Formulations immediately following air-jet milling (25IBU10.1, 25IBU10.2) and after 6 months (25IBU10.1**, 25IBU10.2**) stored at RT (IBU10.1), or at −80° C. (IBU10.2) were analyzed.
PSDs were determined using a Sympatec Helos equipped with a Cuvette module (System-Partikel-Technik GmbH, Clausthal-Zellerfeld, Germany). Data were analyzed using the Sympatec WINDOX software. For each measurement per a previously optimized method, about 2 mg of powder was dispersed in 0.5 mL of 0.1% (w/v) SLS in water and the sample was sonicated for 5 minutes. […] After the reference measurement, 50 μL aliquots of the sonicated suspension were added to the cell to achieve optical concentrations of between 10 to 20% and the total of six measurements were performed on each sample. Analyzed samples included: unprocessed IBU and IND as well as the milled samples from different sections of the jet mill including the tube after grinding chamber (bfC), the cyclone (C), the collection vessel adapter (D), the collection bag adapter (E), the collection vessel (G) and the collection bag (H) for each run. The span value was calculated according to Equation 2.
To estimate the overall D10, D50, and D90 values for the combined recovered fractions associated with each run, stacked bar charts were graphed and analyzed to determine the yield normalized cumulative PSDs. Each stacked bar corresponded to a particle size bin and its height corresponded to the volume density distributions' weighted averages by the yield for each segment of the jet mill. The D10, D50, and D90 values for the normalized cumulative PSDs were the particle sizes corresponding to the 10, 50, and 90% area of the stacked bar chart respectively.
Tween 20 and sodium lauryl sulfate (SLS) were purchased from Fisher Scientific (Fisher Scientific, Pittsburgh, PA, USA), and dH2O was used for preparing solutions. […] A reference measurement was done in 0.1% (v/v) Span 85 in light mineral oil. After a reference measurement, aliquots of […] of sonicated suspension were added to achieve optical concentrations from 10 to 20% for a total of six measurements.
Furthermore, D10, D50, and D90 values for each sample were defined as particle diameters at the 10th, 50th, and 90th percentile of the PSD. Span was calculated according to Equation 2. Normalized cumulative PSDs were composed of yield-normalized distributions, where they were depicted as stacked bar charts. D10, D50, and D90 values for normalized cumulative PSDs were calculated by approximating particle sizes associated with 10%, 50%, and 90% area of the stacked bar chart.

PA01 = assay: Endpoint CFU counting; conditions: 6 hours in MH, free ibuprofen
[5] = system: Staphylococcus aureus vancomycin-intermediate (VISA) strain (Mu50); assay: Endpoint CFU counting; conditions: 6 hours in MH, free ibuprofen
[6] = system: Burkholderia multivorans, BM; assay: In vitro bacterial growth study (OD600); conditions: 10 μg/mL or 1 μg/mL ibuprofen solution added 1:1 (v:v)
[7] = system: Pseudomonas aeruginosa, PA01; assay: In vitro bacterial growth study (OD600); conditions: 10 μg/mL or 1 μg/mL ibuprofen solution added 1:1 (v:v)
[8] = Angle of repose (USP method); type: physicochemical; conditions: N = 3
Experimental: Angle of repose: Angles of repose were measured in triplicate according to the United States Pharmacopoeia (USP) method. Images of the powder mounds were taken using a digital camera and were analyzed using the ImageJ software (Wayne Rasband, Research Services Branch, National Institute of Mental Health, Bethesda, MD, USA). […]

SA 25-05 = assay: Endpoint time-kill synergy study; conditions: ibuprofen with sub-MIC antimicrobial vs antimicrobial alone, 6 hours
[9] = Bulk and tapped density, compressibility index and Hausner ratio; type: physicochemical
Experimental: In this modified method, a 10 mL graduated cylinder fitted with a molded adapter substituted the 100 mL graduated cylinder in the tapped density tester. The compressibility index (CI) and Hausner ratio (HR) calculations were performed according to the following formulas: The tapped density (rT) calculations were performed using a tapped density tester (Agilent Technologies, Santa Clara, CA, USA) with a modified method from the USP for a small mass of powder. In this modified method, a 10 mL graduated cylinder fitted with a molded adapter substituted the 100 mL graduated cylinder for the calculations of the bulk density (rB) and the use in the tapped density tester. The compressibility index (CI) and the Hausner ratio (HR) calculations were performed according to the following formulas: […]

[10] = collection bag fraction or stock, Table 8
[11] = fraction used for testing (IBU collection bag, IND cyclone) or unprocessed powder

For `CC(C)Cc1ccc(C(C)C(=O)O)cc1` (stereo not drawn) [ibuprofen, 2(4-isobutylphenyl)propanoic acid], the solubility [1] was ≤ 5000 µg/mL, the MIC [2] was > 128 µg/mL and the MIC [3] was > 128 µg/mL. The D50 [4, 10] was 48.0 μm, the D90 [4, 10] was 106.7 μm and the Span [4, 10] was 1.8. For the same compound, the Span [4, 11] was 1.84, the “median size (d50)” value [4, 11] was 48 μm and the CFU (PA01) was “Significant reduction in CFU”. For the same compound, the CFU [5] was “Significant reduction in CFU”, the “bacterial growth (OD600)” value [6] was “slowed and/or delayed the growth” and the “bacterial growth (OD600)” value [7] was “slowed and/or delayed the growth”. For the same compound, the “Angle of Repose” value [8] was 62.6 ± 2.9 º, the “killing efficacy of ceftazidime and gentamicin (CFU/ml)” value (SA 25-05) was “significantly increased the killing efficacy of both ceftazidime and gentamicin” and the bulk density [9] was 0.268 g/mL. For the same compound, the tap density [9] was 0.441 g/mL, the “ρB (bulk density)” value [9] was 0.27 g/mL and the “ρT (tapped density)” value [9] was 0.44 g/mL.
